Patent publication US20250243176A1, “(S)-1-(1-ACRYLOYLPIPERIDIN-3-YL)-2-FLUORO-5,6,7,8,9,10-HEXAHYDROCYCLO HEPTA[B]INDOLE-4-CARBOXAMIDE, AND RELATED CRYSTALLINE FORMS, COMPOSITIONS, AND METHODS THEREOF” (GB005, Inc., priority 2021, published 2025)
Like-named read-outs stand apart in the source and are kept apart here.

Columns and labels:
[1] = target: T1, Bruton's tyrosine kinase (BTK) (Homo sapiens, UniProt Q06187); assay: BTK cell-free enzymatic assay; type: biochemical
T1 construct: from tissue; host or cells: whole blood
Description: (S)-1-(1-acryloylpiperidin-3-yl)-2-fluoro-5,6,7,8,9,10-hexahydrocyclohepta[b]indole-4-carboxamide, hereinafter referred to as “Compound 1”, is an orally available, selective, potent inhibitor of Bruton's tyrosine kinase (BTK), thereby providing potential treatment options in BTK-driven diseases. The potency of Compound 1 for BTK inhibition is in the nM range in both cell-free enzymatic and whole blood functional assays.

[2] = Further solubility testing in excipients, HPLC; type: physicochemical
Experimental: Compound 1 (˜0.5 g) was added to each excipient until visually saturated. The mixtures were incubated on a temperature-controlled mixer with glass beads to facilitating mixing, for at least 48 hours at room temperature (liquid excipients) or 40° C. (semisolid excipients). The samples were then centrifuged using 0.45 μm PVDF filter to separate the liquid and solid portions. The amount of dissolved compound in the filtrate was quantified by HPLC. XRPD analysis of any solid powder confirmed there was no change in form. The solubility results are presented in Table 16 and show Compound 1 had high solubility (>30 mg/g) in most of the screened excipients.

[3] = Phase 1 food effect on pharmacokinetics; type: in vivo, human; details: for Tmax / half-life / AUC(0-inf) / Cmax: human, plasma, oral; for AUC(0-inf) / Cmax: mean
Description: Cohort 11 is a randomized, 2-treatment, 2-period, 2-sequence, single-dose level food effect evaluation. The formulation used in Cohort 11 is Formulation A. In Treatment Sequence FH, subjects receive Compound 1 in the fasted state on Day 1, and a second dose in the fed state (high-fat, high-calorie meal) on Day 8. In Treatment Sequence HF, subjects receive Compound 1 in the fed state (high-fat, high-calorie meal) on Day 1 and a second dose in the fasted state on Day 8. Days 2-7 are washout days.
Results: Preliminary pharmacokinetic results evaluating the effect of food on Compound 1 PK are presented, including 12 subjects from Cohort 11, […] 15 mg under fasting conditions, or in a fed state (with a moderate-fat meal or with a high-fat high-calorie meal). Preliminary PK parameters are presented in Table 48 (all pharmacokinetic parameters of […] are reported as Mean (% coefficient of variation), except for Tmax and t/2, which are reported as Median (Min, Max)), and in FIG. 28.

CYP3A = assay: Phase 1 drug-drug interaction with itraconazole (strong CYP3A inhibitor); type: in vivo, human; details: for AUC(0-inf) / Cmax / T1/2 / Tmax: Cohort 12, 2 mg single dose; for AUC(0-inf) / Cmax: mean; for T1/2 / Tmax: median
Experimental: Cohort 12 is an open-label, fixed-sequence, multiple-dose DDI study with itraconazole (ITZ). Subjects receive a single oral dose of Compound 1 administered in the fasted state on Day 1. Beginning on Day 3 and continuing through to Day 6, subjects receive itraconazole 200 mg once daily (QD) in a fasted state. On Day 5, subjects receive Compound 1 administered in the fasted state, 1 hour after administration of itraconazole.
Results. Preliminary pharmacokinetic results evaluating the drug-drug interaction effect of a strong CYP3A inhibitor (itraconazole) on Compound 1 PK are presented, including 9 subjects from Cohort 12 receiving single doses of 2 mg Compound 1 under fasting conditions alone or in combination with once daily itraconazole 200 mg. Preliminary PK parameters are presented in Table 49 (all pharmacokinetic parameters of Table 49 are reported as Mean (% coefficient of variation), except for Tmax and t1/2, which are reported as Median (Min, Max)), and in FIG. 29 presenting the mean (SD) plasma concentration-time profiles of Compound 1.

[4] = 15 mg, Cohort 11, 15 mg single dose, Fasted
[5] = 15 mg, Cohort 11, 15 mg single dose, High-Fat
[6] = 15 mg, Cohorts 2 and 7, 15 mg single dose, Moderate-Fat
[7] = 2 mg Compound 1, itraconazole 200 mg once daily, fasting
[8] = fasted, Day 5 (+ITZ 200 mg once daily)
[9] = single 2 mg dose, fasting, alone or with itraconazole 200 mg once daily

T1 sequence (Q06187 whole entry, species assumed): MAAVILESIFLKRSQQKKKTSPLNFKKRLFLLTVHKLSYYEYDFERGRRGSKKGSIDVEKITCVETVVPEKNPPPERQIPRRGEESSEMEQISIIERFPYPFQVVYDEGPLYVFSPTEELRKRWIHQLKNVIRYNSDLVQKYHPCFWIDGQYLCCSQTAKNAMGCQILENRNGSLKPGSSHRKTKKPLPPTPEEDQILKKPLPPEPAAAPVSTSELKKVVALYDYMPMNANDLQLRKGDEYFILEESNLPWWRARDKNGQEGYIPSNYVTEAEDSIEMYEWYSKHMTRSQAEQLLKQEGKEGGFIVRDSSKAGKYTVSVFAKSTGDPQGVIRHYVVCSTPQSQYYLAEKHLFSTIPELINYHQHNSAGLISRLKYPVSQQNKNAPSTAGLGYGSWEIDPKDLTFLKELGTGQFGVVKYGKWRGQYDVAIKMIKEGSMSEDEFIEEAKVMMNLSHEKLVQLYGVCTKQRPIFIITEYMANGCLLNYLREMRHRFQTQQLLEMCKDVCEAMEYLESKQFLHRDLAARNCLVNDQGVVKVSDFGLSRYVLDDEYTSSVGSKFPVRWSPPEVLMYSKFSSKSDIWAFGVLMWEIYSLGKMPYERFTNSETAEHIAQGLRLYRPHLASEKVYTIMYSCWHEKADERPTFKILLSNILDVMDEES

potency for BTK inhibition [1]: nM range
Solubility ([2]; Capryol PGMC, at least 48 hours, RT (liquid) or 40° C. (semisolid excipients)): 38.1 mg/g
Solubility ([2]; Gelucire 44/14, at least 48 hours, RT (liquid) or 40° C. (semisolid excipients)): 48.9 mg/g
Solubility ([2]; Gelucire 50/13, at least 48 hours, RT (liquid) or 40° C. (semisolid excipients)): 45.9 mg/g
Solubility ([2]; Kolliphor ELP, at least 48 hours, RT (liquid) or 40° C. (semisolid excipients)): 36.5 mg/g
Solubility ([2]; Kolliphor HS 15, at least 48 hours, RT (liquid) or 40° C. (semisolid excipients)): 53.6 mg/g
Solubility ([2]; Kolliphor RH40, at least 48 hours, RT (liquid) or 40° C. (semisolid excipients)): 52.4 mg/g
Solubility ([2]; Labrafil M 1944 CS, at least 48 hours, RT (liquid) or 40° C. (semisolid excipients)): 10.7 mg/g
Solubility ([2]; Labrafil M 2125 CS, at least 48 hours, RT (liquid) or 40° C. (semisolid excipients)): 9.3 mg/g
Solubility ([2]; Labrasol ALF, at least 48 hours, RT (liquid) or 40° C. (semisolid excipients)): 68.1 mg/g
Solubility ([2]; Lauroglycol FCC, at least 48 hours, RT (liquid) or 40° C. (semisolid excipients)): 16.0 mg/g
Solubility ([2]; Maisine CC, at least 48 hours, RT (liquid) or 40° C. (semisolid excipients)): 16.7 mg/g
Solubility ([2]; Masester E8120, at least 48 hours, RT (liquid) or 40° C. (semisolid excipients)): 65.3 mg/g
Solubility ([2]; Miglyol 812N, at least 48 hours, RT (liquid) or 40° C. (semisolid excipients)): 2.9 mg/g
Solubility ([2]; Oleic Acid, at least 48 hours, RT (liquid) or 40° C. (semisolid excipients)): 21.0 mg/g
Solubility ([2]; PEG 400, at least 48 hours, RT (liquid) or 40° C. (semisolid excipients)): 77.3 mg/g
Solubility ([2]; Peceol, at least 48 hours, RT (liquid) or 40° C. (semisolid excipients)): 22.8 mg/g
Solubility ([2]; Sesame Oil, at least 48 hours, RT (liquid) or 40° C. (semisolid excipients)): 1.9 mg/g
Solubility ([2]; Span 80, at least 48 hours, RT (liquid) or 40° C. (semisolid excipients)): 12.2 mg/g
Solubility ([2]; Transcutol HP, at least 48 hours, RT (liquid) or 40° C. (semisolid excipients)): 118.6 mg/g
Solubility ([2]; Tween 20, at least 48 hours, RT (liquid) or 40° C. (semisolid excipients)): 48.6 mg/g
Solubility ([2]; Tween 80, at least 48 hours, RT (liquid) or 40° C. (semisolid excipients)): 49.0 mg/g
Solubility ([2]; Vitamin E TPGS, at least 48 hours, RT (liquid) or 40° C. (semisolid excipients)): 40.8 mg/g
Solubility ([2]; in most of the screened excipients): > 30 mg/g
AUC0-inf, High-Fat/Fasted % GMR - paired ([3]; 15 mg single dose): 120.3%
AUC0-inf, Moderate-Fat/Fasted % GMR - unpaired ([3]; 15 mg single dose): 107.9%
Cmax, High-Fat/Fasted % GMR - paired ([3]; 15 mg single dose): 68.0%
Cmax, Moderate-Fat/Fasted % GMR - unpaired ([3]; 15 mg single dose): 74.1%
Tmax ([3]; both sexes, 15 mg, single 15 mg dose, fasting, moderate-fat meal or high-fat high-calorie meal, read-out: mean plasma Tmax): 1 to 2.5 h
half-life ([3]; both sexes, 15 mg, single 15 mg dose, fasting, moderate-fat meal or high-fat high-calorie meal, read-out: terminal half-life (converted)): ~3 h
AUC(0-inf) [3, 4]: 312 ng·h/mL
Cmax [3, 4]: 137 ng/mL
half-life ([3]; 15 mg, Cohort 11, 15 mg single dose, Fasted, median, read-out: T1/2 (converted)): 2.89 h
Tmax ([3]; 15 mg, Cohort 11, 15 mg single dose, Fasted, median, read-out: Tmax): 1 h
AUC(0-inf) [3, 5]: 356 ng·h/mL
Cmax [3, 5]: 85.5 ng/mL
half-life ([3]; 15 mg, Cohort 11, 15 mg single dose, High-Fat, median, read-out: T1/2 (converted)): 2.99 h
Tmax ([3]; 15 mg, Cohort 11, 15 mg single dose, High-Fat, median, read-out: Tmax): 2.5 h
AUC(0-inf) [3, 6]: 322 ng·h/mL
Cmax [3, 6]: 101 ng/mL
half-life ([3]; 15 mg, Cohorts 2 and 7, 15 mg single dose, Moderate-Fat, median, read-out: T1/2 (converted)): 2.9 h
Tmax ([3]; 15 mg, Cohorts 2 and 7, 15 mg single dose, Moderate-Fat, median, read-out: Tmax): 1.5 h
effect of food on PK ([3]; moderate fat, or high-fat high calorie meal, 15 mg): no clinically significant effect
increase of AUCinf on coadministration of itraconazole (CYP3A; [7]): 15%
increase of Cmax on coadministration of itraconazole (CYP3A; [7]): 23%
AUC(0-inf) (CYP3A; fasted, Day 1 (Alone)): 46.7 ng·h/mL
Cmax (CYP3A; fasted, Day 1 (Alone)): 21.2 ng/mL
T1/2 (CYP3A; fasted, Day 1 (Alone)): 3.13 h
Tmax (CYP3A; fasted, Day 1 (Alone)): 1.0 h
AUC(0-inf) (CYP3A; [8]): 54.4 ng·h/mL
Cmax (CYP3A; [8]): 26.3 ng/mL
T1/2 (CYP3A; [8]): 3.14 h
Tmax (CYP3A; [8]): 1.5 h
AUC0-inf, % GMR ITZ/Alone (CYP3A; Cohort 12, 2 mg, fasted): 115%
Cmax, % GMR ITZ/Alone (CYP3A; Cohort 12, 2 mg, fasted): 123%
effect of a strong CYP3A inhibitor on PK (CYP3A; coadministration of itraconazole): no clinically significant effect
mean plasma Tmax (CYP3A; [9]): 1.0 to 1.5 h
terminal half-life (CYP3A; [9]): approximately 3 hours
Structure (SMILES): C=CC(=O)N1CCC[C@@H](c2c(F)cc(C(N)=O)c3[nH]c4c(c23)CCCCC4)C1 [Compound 1, (S)-1-(1-acryloylpiperidin-3-yl)-2-fluoro-5,6,7,8,9,10-hexahydrocyclohepta[b]indole-4-carboxamide]
